# Test results from patent publication US20200239530A1, “COMPOUNDS AND METHODS OF MODULATING PROTEIN DEGRADATION” (Vividion Therapeutics, Inc., priority 2017, published 2020).
# How the values were obtained:
# Assay type in all cases: binding
# [1] = target: T1, cysteine residue illustrated in Table 1A or Table 2A (Homo sapiens, UniProt O75155); experiment: Competitive cysteine profiling of cell lysate with desthiobiotin iodoacetamide probe (96-well sample prep); details: UniProt O75155; 100 uM
# T1 construct: Cells were resuspended in cold PBS on ice and sonicated with a probe sonicator to achieve lysis; endogenous in cells
# Protocol: (§1) In some embodiments, the solution sample (e.g., cell sample, cell lysate sample, or comprising isolated proteins) is incubated with a compound of Formula (I) for analysis of protein-probe interactions. In some instances, the solution sample (e.g., cell sample, cell lysate sample, or comprising isolated proteins) is further incubated in the presence of an additional compound probe prior to addition of the compound of Formula (I). […] In such instances, the solution sample is incubated with a probe and a ligand for competitive protein profiling analysis.
# (§2) The following 96-well sample prep protocol was used for sample preparation.
# (§3) Cells were resuspended in cold PBS on ice and sonicated with a probe sonicator to achieve lysis. 200 μL of lysate containing 5 mg/ml proteome was treated with 2 μL of 100× compound stock in a 2-mL deep-well plate. The treated lysate was subsequently incubate at 25° C. for 1 hr with shaking at 600 rpm. The treated lysate was further incubated with 2 μL of 10 mM desthiobiotin iodoacetamide probe at 25° C. for 1 hr with shaking at 600 rpm. Next, the lysate was further treat with 20 μL of solution of PBS containing 11 mM MgSO4 and 2.5% Turbonuclease stock and incubated at 25° C. for 20 minutes with shaking at 600 rpm. 1.7 mL ice-cold acetone was added to each well and incubated at −20° C. for 2 hr, followed by max speed (4200 rpm) spin for 45 min. Acetone was then decanted and the plates were blotted to remove acetone. The plates were then dried in open air for 20 minutes. After drying, the plates were then covered with foil seal and stored at −80° C. overnight.
# (§4) The next day, samples were re-suspended in 90 μL of solution of 9M urea, 50 mM ammonium bicarbonate and 10 mM DTT by incubating at 65C for 20 min with shaking at 1500 rpm. Next, samples were cooled to 37° C. and then 10 μL of 500 mM iodoacetamide solution (92.48 mg/ml) was added. The samples were then incubated at 37° C. for 30 min with shaking at 600 rpm.
# (§5) ZEBA desalting plates were equilibrated 4 times using 250 μL of 2M urea, 50 mM ammonium bicarbonate solution followed by centrifugation at 1500 rpm for 2 minutes. After equilibration was complete, samples were applied to ZEBA desalting plate and spin at 1500 rpm for 2 min on top of 1 mL 96-well deep-well collection plate to buffer exchange samples. 4 μL of solution containing 25 mM CaCl2 and 0.25 mg/mL trypsin was added to the plate and the plate was then incubated at 37° C. for 2 hrs with shaking at 600 rpm. 300 μL of solution containing 5% high-capacity streptavidin agarose slurry in 25 mM Tris-HCl pH 7.5, 150 mM NaCl, and 0.1% NP-40 then added. The plate was incubated at 25° C. for 2 hrs with shaking at 600 rpm. Samples were transferred to 25 μm filter plate and spin at 1000 rpm for 2 min. Samples were then washed 3 times with 0.75 mL of wash buffer (25 mM Tris-HCl pH 7.5, 150 mM NaCl, and 0.1% NP-40) followed by washing 3 times with 0.75 mL PBS, and then 4 times with 0.75 mL water. After the washing step, samples were eluted into polypropylene 96-well plate by addition of 250 µL of 50% MeCN/water, 0.1% formic acid and allowed to gravity drip for 10 min, followed by centrifugation at 1000 rpm for 2 min. Speedvac was used to dry the plates at about 45° C. for […]. Then the plates were covered with foil seal and stored at −20° C.
# (§6) Samples were resuspended by addition of 20 μl of 12.5% ACN, 0.1% formic acid solution, covered with foil seal, and incubated at 42° C. for 10 minutes with shaking at 600 rpm. Then add 30 μL of 0.1% formic acid solution was added and the plate was covered and incubated at 42° C. for 10 minutes with shaking at 600 rpm. Seal plate was then sealed with a 96-well silicon mat for analysis.
# [2] = target: T2, cysteine residue illustrated in Table 1A or Table 2A (Homo sapiens, UniProt Q86UW9); experiment: as above; details: UniProt Q86UW9; 100 uM
# T2 construct: Cells were resuspended in cold PBS on ice and sonicated with a probe sonicator to achieve lysis; endogenous in cells
# Protocol: as §1, §2, §3, §4, §5, §6
# [3] = target: T3, cysteine residue illustrated in Table 1A or Table 2A (Homo sapiens, UniProt Q8N9I9); experiment: as above; details: UniProt Q8N9I9; 100 uM
# T3 construct: Cells were resuspended in cold PBS on ice and sonicated with a probe sonicator to achieve lysis; endogenous in cells
# Protocol: as §1, §2, §3, §4, §5, §6
# [4] = target: T4, cysteine residue illustrated in Table 1A or Table 2A (Homo sapiens, UniProt Q8WV16); experiment: as above; details: UniProt Q8WV16; 100 uM
# T4 construct: Cells were resuspended in cold PBS on ice and sonicated with a probe sonicator to achieve lysis; endogenous in cells
# Protocol: as §1, §2, §3, §4, §5, §6
# [5] = tested on: cysteine residue illustrated in Table 1A or Table 2A; experiment: as above; details: for KB02_100 uM_percent_inhibition: KB02 at 100 uM; for KB03_100 uM_percent_inhibition: KB03 at 100 uM
# Protocol: as §1, §2, §3, §4, §5, §6
# Q8ND25 = target: T5, Q8ND25 (Homo sapiens, UniProt Q8ND25); experiment: Cysteine liganding, probe competition (Table 2B); details: one line per cysteine site
# T5 construct: 200 μL of lysate containing 5 mg/ml proteome was treated with 2 μL of 100× compound stock; endogenous in cells
# Text: as §2
# Q8NHG8 = target: T6, Q8NHG8 (Homo sapiens, UniProt Q8NHG8); experiment: Cysteine liganding, probe competition (Table 2B); details: one line per cysteine site
# T6 construct: 200 μL of lysate containing 5 mg/ml proteome was treated with 2 μL of 100× compound stock; endogenous in cells
# Text: as §2
# [6] = target: T7, cysteine residue illustrated in Table 1A or Table 2A (Homo sapiens, UniProt O60826); experiment: Competitive cysteine profiling of cell lysate with desthiobiotin iodoacetamide probe (96-well sample prep); details: UniProt O60826; 100 uM
# T7 construct: Cells were resuspended in cold PBS on ice and sonicated with a probe sonicator to achieve lysis; endogenous in cells
# Protocol: as §1, §2, §3, §4, §5, §6
# [7] = target: T8, cysteine residue illustrated in Table 1A or Table 2A (Homo sapiens, UniProt O94941); experiment: as above; details: UniProt O94941
# T8 construct: Cells were resuspended in cold PBS on ice and sonicated with a probe sonicator to achieve lysis; endogenous in cells
# Protocol: as §1, §2, §3, §4, §5, §6
# [8] = target: T9, cysteine residue illustrated in Table 1A or Table 2A (Homo sapiens, UniProt Q66K64); experiment: as above; details: UniProt Q66K64; 100 uM
# T9 construct: Cells were resuspended in cold PBS on ice and sonicated with a probe sonicator to achieve lysis; endogenous in cells
# Protocol: as §1, §2, §3, §4, §5, §6
# [9] = target: T10, cysteine residue illustrated in Table 1A or Table 2A (Homo sapiens, UniProt Q6P1J9); experiment: as above; details: UniProt Q6P1J9; 100 uM
# T10 construct: Cells were resuspended in cold PBS on ice and sonicated with a probe sonicator to achieve lysis; endogenous in cells
# Protocol: as §1, §2, §3, §4, §5, §6
# [10] = target: T11, cysteine residue illustrated in Table 1A or Table 2A (Homo sapiens, UniProt Q8TEB1); experiment: as above; details: UniProt Q8TEB1; 100 uM
# T11 construct: Cells were resuspended in cold PBS on ice and sonicated with a probe sonicator to achieve lysis; endogenous in cells
# Protocol: as §1, §2, §3, §4, §5, §6
# [11] = target: cysteine residue illustrated in Table 1A or Table 2A (Homo sapiens, UniProt Q13616); experiment: as above; parameters: endogenous in cells; details: UniProt Q13616; 100 uM
# Protocol: as §1, §2
# as §3, with “Acetone was then decanted and the plates were blotted to remove acetone. The plates were then dried in open air for 20 minutes. After drying, the plates were then covered with foil seal and stored at −80° C. overnight.” left out
# [12] = 500 uM, read-out: KB02_500 uM_percent_inhibition
# [13] = 100 uM, read-out: KB05_100 uM_percent_inhibition
smiles,measurement,setting,value
COc1ccc2c(c1)CCCN2C(=O)CCl [KB02],KB02_100 uM_percent_inhibition,[1],24%
same,KB02_100 uM_percent_inhibition,[2],28%
same,KB02_100 uM_percent_inhibition,[3],8%
same,KB02_100 uM_percent_inhibition,[4],16%
same,KB02_100 uM_percent_inhibition,"[5]; c0 = UniProt of target protein, one grid row per cysteine site",24%
same,KB02_100 uM_percent_inhibition,"[5]; target protein = UniProt accession, one row per cysteine site",24%
same,KB02_100 uM_percent_inhibition,[5]; target protein = UniProt id in c0 of the row (one row per cysteine site),24%
same,inhibition at 500 µM,Q8ND25; [12],42%
same,inhibition at 500 µM,Q8NHG8; [12],35%
C=CC(=O)N(c1ccccc1)c1ccc(Br)cc1 [KB05],KB05_100 uM_percent_inhibition,[6],22%
same,KB05_100 uM_percent_inhibition,[7]; KB05 100 uM,40%
same,KB05_100 uM_percent_inhibition,[8],11%
same,KB05_100 uM_percent_inhibition,[9],33%
same,KB05_100 uM_percent_inhibition,[10],38%
same,KB05_100 uM_percent_inhibition,[4],26%
same,inhibition at 100 µM,Q8ND25; [13],9%
same,inhibition at 100 µM,Q8NHG8; [13],9%
same,KB05_100 uM_percent_inhibition,[11],4%
O=C(CCl)Nc1cc(C(F)(F)F)cc(C(F)(F)F)c1 [KBO3],KB03_100 uM_percent_inhibition,[6],7%
same,KB03_100 uM_percent_inhibition,[1],31%
same,KB03_100 uM_percent_inhibition,[7]; KB03 100 uM,63%
same,KB03_100 uM_percent_inhibition,[8],31%
same,KB03_100 uM_percent_inhibition,[9],24%
same,KB03_100 uM_percent_inhibition,[2],8%
same,KB03_100 uM_percent_inhibition,[3],10%
same,KB03_100 uM_percent_inhibition,[10],43%
same,KB03_100 uM_percent_inhibition,"[5]; target protein = UniProt accession, one row per cysteine site, UniProt Q9P0J7",90%
same,KB03_100 uM_percent_inhibition,"[5]; target protein = UniProt accession, one row per cysteine site, UniProt Q08380",69%
same,KB03_100 uM_percent_inhibition,[11],31%
